The values that follow are results of earlier work, collected in paper PMC9389927 (Renal Failure, 2022).

In the data set the test system is experimental model of AKI.

As for “IGF-1: long-chain polypeptide composed of dozens of amino acids, including four domains, A, B, C and D”, the Glomerular filtration rate entry is recorded as “increased the glomerular filtration rate”.
